Experimental data from patent US5312831A, “Urethanes and ureas that induce cytokine production” (American Cyanamid Company, priority 1993, dated 1994).

How the values were obtained:
Assay type in all cases: in vivo, mouse
IL-6 = experiment: Serum IL-6 production in mice after single s.c. injection (7TD1 bioassay); conditions: serum 4 h post injection
Procedure: Description of Biological Assays Interleukin 6(IL-6) assay for structure function analysis--Test compounds are dissolved in water and administered subcutaneously in 0.2 ml to deliver a dose of 0.1-10 mg/kg. The less soluble compounds are first dissolved in 100% ethanol and then brought to the appropriate concentration in water. Four hours post injection, the mice are bled and the serum is retrieved. The IL-6 dependent cell line 7TDl is used to assay serial dilutions of sera for IL-6 content. 7TDl cells (1×10^4) are placed in microtiter wells and incubated at 37° C. for 72 hours with standard recombinant mouse IL-6 or with dilutions of serum to be tested. Over the last 6 hours, the cells are pulsed with ^3 H-Tdr (μci). Cells are then harvested and the degree of proliferation determined by the uptake of ^3 H-Tdr as measured by liquid scintillation spectrometry. The concentration of IL-6 in serum is calculated from standard curves utilizing recombinant IL-6 from R&D Systems Inc. and are reported in units of IL-6 activity as defined by the manufacturer.

CSF = experiment: Serum colony stimulating factor (CSF) assay in mice; conditions: serum 4 hours after injection
Procedure: Colony forming assays Granulocyte-Macrophage (CFU-GM)--Mice are treated with 150 mg/kg of 5-Fu and treatment with test compound begins 24 hrs. later. On consecutive days, mice are killed by cervical dislocation and the femurs removed under sterile conditions. Femurs are flushed with 1 ml of ice cold medium (Iscove's supplemented with 20% FCS, 1% penicillin-streptomycin, 1% glutamine and 5×10^-5 M 2-mercaptoethanol). Bone marrow cells (5×10^5) are then plated in 12×75 mm tissue culture plates in 3 ml of warm ararose (3%) in Iscove's medium with 100 Units/ml of recombinant mouse GM-CSF purchased from Genzyme (Boston, Mass.). Plates are incubated for 7 days at 37° C. in 5% CO2. After 7 days, colonies of 50 cells or greater are enumerated under a dissecting microscope.
Bone marrow cells are prepared as described above for the CFU-GM assay. The cells are then incubated in soft agar with an 0.3% final concentration of serum taken from mice 4 hours after injection with test compounds. After 7 days of incubation at 37° C., the number of colony forming (CFU) cells per 10^5 plated bone marrow cells is determined by counting colonies of more than 50 cells under a dissecting microscope. The data are reported as CFU/10^5 bone marrow cells.

neutrophils [1] = experiment: Neutrophil recovery in 5-FU treated mice; conditions: day 7 post 5FU, n = 6 mice/group, 0 dose 54 ± 22
neutrophils [2] = experiment: Neutrophil recovery in 5-FU treated mice; conditions: mouse, in vivo
Procedure: Circulating Neutrophil Assay--Mice are treated with 5-FU (150 mg/kg) and beginning 24 hrs. later, treated daily with the test compound. Mice are bled daily by retroorbital puncture in heparinized capillary tubes. Circulating WBC counts are determined by Coulter counter. Blood smears are stained with Wright-Geimsa solution and the percentage circulating neutrophils determined by differential counting under a microscope.
5-Fluorouracil (5-FU) Induced Neutropenia In Mice--Mice are treated ip with 150 mg/kg of the chemotherapy agent 5-FU which induces a severe loss of neutrophils in the peripheral blood 5-6 days later. Twenty-four hrs. after the dose, treatment with the test compounds is initiated. The effect of the test compounds on recovery of neutrophil progenitor cells in the bone marrow is determined by the CFU-GM assay. The recovery of circulating neutrophils is followed by differential staining of the peripheral blood.
*Data from 10 mice/group on day 7 post treatment with 150 mg/kg of 5FU.
Beginning 24 hrs. after 5FU dose, mice were treated daily with test
compound at concentrations indicated. Neutrophil count for normal mice (n
**Mice treated with 5FU and vehicle only.

| SMILES | IL-6 (IL-6; 0.1 mg/kg s.c.) | IL-6 (IL-6; 1.0 mg/kg s.c.) | IL-6 (IL-6; 10.0 mg/kg s.c.) | CSF production, CFU/100,000 Bone Marrow Cells (CSF; 1.0 mg/kg) | CSF production, CFU/100,000 Bone Marrow Cells (CSF; 10.0 mg/kg) | CSF production, CFU/100,000 Bone Marrow Cells (CSF; 0.1 mg/kg) | Neutrophils/cu. mm. (neutrophils [1]; 1 μg/kg daily) | Neutrophils/cu. mm. (neutrophils [1]; 10 μg/kg daily) | Neutrophils/cu. mm. (neutrophils [1]; 100 μg/kg daily) | neutrophil recovery in 5-FU treated mice (in words) (neutrophils [2]) |
| --- | --- | --- | --- | --- | --- | --- | --- | --- | --- | --- |
| CCCCCC1CCC(C(=O)NC(C(=O)O)C(C)OC(=O)N[C@@H](CCC[C@@H](N)C(=O)O)C(=O)N[C@H](C)C(=O)O)CC1 (stereo partly drawn) [Example 33, [(R)-6-Carboxy-N^2-[[2-carboxy-1-methyl-2-[[(4-pentylcyclohexyl)carbonyl]amino]ethoxy]carbonyl]-L-lysyl]-D-Alanine] | 1651 ± 100 U/ml | 3767 ± 457 U/ml | – | – | – | – | – | – | – | – |
| CCCCOc1ccc(CC(=O)NC(C(=O)O)C(C)OC(=O)N[C@@H](CCC[C@@H](N)C(=O)O)C(=O)N[C@H](C)C(=O)O)cc1 (stereo partly drawn) [Example 34, N-[N^2-[[2-[[(4-Butoxyphenyl)acetyl]amino]-2-carboxy-1-methylethoxy]carbonyl]-(R)-6-carboxy-L-lysyl]-D-Alanine] | 3610 ± 347 U/ml | 5063 ± 302 U/ml | – | – | – | – | – | – | – | – |
| CCCCCCC(=O)N[C@H](C(=O)O)[C@H](C)OC(=O)N[C@@H](CCC[C@@H](N)C(=O)O)C(=O)N[C@H](C)C(=O)O [Example 30, [S-(R*,R*)]-N-(R)-6-carboxy-N^2-[[2-Carboxy-1-methyl-2-[(1-oxoheptyl)amino]ethoxy]carbonyl]-L-lysyl]-D-Alanine] | 328 ± 107 U/ml | – | – | – | – | – | – | – | – | – |
| CCCCCCC(=O)NC(CNC(=O)N[C@@H](CCCC(NC(=O)OC(C)(C)C)C(=O)OC)C(=O)N[C@H](C)C(=O)OC)C(=O)O (stereo partly drawn) [Example 81, N-N^2-[[[2-carboxy-2-[(1-oxoheptyl)amino]ethyl]amino]carbonyl]-N^6-[(1,1-dimethylethoxy)carbonyl]-6-(methoxycarbonyl)-L-lysyl-D-alanine methyl ester] | – | 56 ± 19 U/ml | 199 ± 23 U/ml | 69 ± 14 CFU/100,000 Bone Marrow Cells | 101 ± 7 CFU/100,000 Bone Marrow Cells | – | – | – | – | – |
| CCCCCCC(=O)N[C@@H](C(=O)O)[C@H](C)OC(=O)N[C@@H](CCC[C@@H](N)C(=O)O)C(=O)N[C@H](C)C(=O)O [Example 29, [S-(R*,S*)]-N-[(R)-6-carboxy-N^2-[[2-carboxy-1-methyl-2-[(1-oxoheptyl)amino]ethoxy]carbonyl]-L-lysyl]-D-Alanine] | 0 U/ml | 203 U/ml | 537 U/ml | 101 ± 46 CFU/100,000 Bone Marrow Cells | – | 0 ± 0 CFU/100,000 Bone Marrow Cells | – | – | – | – |
| CCCCCCC(=O)NC(CNC(=O)N[C@@H](CCCC(N)C(=O)OC)C(=O)N[C@H](C)C(=O)OC)C(=O)OCc1ccccc1 (stereo partly shown) [Example 80] | – | 1712 ± 168 U/ml | 3624 ± 611 U/ml | 91 ± 3 CFU/100,000 Bone Marrow Cells | 121 ± 9 CFU/100,000 Bone Marrow Cells | – | – | – | – | – |
| CCCCCCC(=O)NC(CNC(=O)N[C@@H](CCCC(N)C(=O)OC)C(=O)N[C@H](C)C(=O)OC)C(=O)O (stereo partly shown) [Example 82] | – | 2181 ± 92 U/ml | 3188 ± 345 U/ml | 108 ± 11 CFU/100,000 Bone Marrow Cells | 115 ± 3 CFU/100,000 Bone Marrow Cells | – | – | – | – | – |
| CCCCCCC(=O)NC(CNC(=O)N[C@@H](CCCC(NC(=O)OC(C)(C)C)C(=O)O)C(=O)N[C@H](C)C(=O)O)C(=O)O (stereo partly shown) [Example 83] | – | 332 ± 38 U/ml | 1818 ± 243 U/ml | 204 ± 9 CFU/100,000 Bone Marrow Cells | 123 ± 22 CFU/100,000 Bone Marrow Cells | – | – | – | – | – |
| CCCCCCC(=O)N[C@H](C(=O)O)[C@@H](C)OC(=O)N[C@@H](CCC[C@@H](N)C(=O)O)C(=O)N[C@H](C)C(=O)O (relative stereo) [Example 31, R-(R*,S*)]-N-(R)-6-carboxy-N^2-[[2-carboxy-1-methyl-2-[(1-oxoheptyl)amino]ethoxy]carbonyl]-L-lysyl]-D-Alanine] | 294 ± 24 U/ml | – | – | – | – | – | – | – | – | – |
| CCCCCCC(=O)NC(CNC(=O)N[C@@H](CCCC(N)C(=O)O)C(=O)N[C@H](C)C(=O)O)C(=O)O (stereo partly shown) [Example 84] | 1963 ± 97 U/ml | 3865 ± 688 U/ml | 2512 ± 209 U/ml | 118 ± 15 CFU/100,000 Bone Marrow Cells | 131 ± 10 CFU/100,000 Bone Marrow Cells | 129 ± 14 CFU/100,000 Bone Marrow Cells | 427 ± 211 /cu. mm. | 570 ± 224 /cu. mm. | 2194 ± 629 /cu. mm. | induce neutrophil recovery in 5-FU treated mice |
